The test system of this assay is human sebocytes. The assay is described as follows: Sebum suppression: 14C-acetate label remaining in cultured human sebocytes. Type of assay: cell-based. The settings on record: for activity at 1 µM / activity at 10 µM / activity at 0.1 µM / activity at 28 µM / activity at 280 µM / activity at 50 µM: Homo sapiens; for activity at 1 µM / activity at 10 µM / activity at 0.1 µM / activity at 50 µM: read-out: % of Control; for sebum suppressive activity in the presence of a retinoid / combined with retinol: summary in words, combined with retinol versus compound alone.

Where [1] appears, read: Experiment A, 1 μM test compound + 1 μM Retinol.
Where [2] appears, read: Experiment A, 1 μM test compound + 10 μM Retinol.
The mark [3] stands for this setting: Experiment A, 1 μM test compound alone.
[4] abbreviates: Experiment A, 10 μM test compound + 1 μM Retinol.
Where [5] appears, read: Experiment A, 10 μM test compound + 10 μM Retinol.
Setting [6] is: Experiment A, 10 μM test compound alone.
The mark [7] stands for this setting: Experiment B, 0.1 μM test compound + 1 μM Retinol.
[8] abbreviates: Experiment B, 0.1 μM test compound + 10 μM Retinol.
Where [9] appears, read: Experiment B, 0.1 μM test compound alone.
The mark [10] stands for this setting: Experiment B, 1 μM test compound + 1 μM Retinol.
Where [11] appears, read: Experiment B, 1 μM test compound + 10 μM Retinol.
[12] abbreviates: Experiment B, 1 μM test compound alone.
The mark [13] stands for this setting: Experiment B, 10 μM test compound + 1 μM Retinol.
Where [14] appears, read: Experiment B, 10 μM test compound + 10 μM Retinol.
Where [15] appears, read: Experiment B, 10 μM test compound alone.
Setting [16] is: Experiment A, 28 μM Phenol Red (positive control).
[17] abbreviates: Experiment B, 280 μM Phenol Red (positive control).

Each structure is given as a SMILES string. “And” between values parts separate entries of the source, which are not always exact repeats. Equal values may be shown once. Read-outs that look alike come from different tables or passages of the source.

`CC(CCC(=O)NC(=O)Nc1ccccc1Sc1ccccc1CO)C1CCC2=C3CCC4CC(O)CCC4(C)C3CC(O)C21C` (centres unmarked) [Compound A]: the activity at 1 µM was found to be 68.5% under setting [1]; 64.8% under setting [2]; 68.5% under setting [3]; 77.4% under setting [10]; 73.9% under setting [11]; 76.1% under setting [12]. Further, the activity at 10 µM under setting [4] was 73.4%; the activity at 10 µM under setting [5] was 60.8%; the activity at 10 µM under setting [6] amounted to 71%; the activity at 10 µM under setting [13] is 62.7%; the activity at 10 µM under setting [14] stood at 64.6%; the activity at 10 µM under setting [15] was found to be 70.2%. Further, the activity at 0.1 µM was 88.8% under setting [7], 84.2% under setting [8] and 84.5% under setting [9].
Turning to `CC(CCC(=O)N1CCN(c2ccccc2)CC1)C1CCC2=C3CCC4CC(O)CCC4(C)C3CC(O)C21C` (centres unmarked) [Compound B], the activity at 1 µM is, setting by setting: under setting [1], 80%; under setting [2], 66.2%; under setting [3], 88.1%; under setting [10], 69.1%; under setting [11], 69.9%; under setting [12], 68%. The activity at 10 µM is, setting by setting: under setting [4], 8.7%; under setting [5], 7.2%; under setting [6], 25.6%; under setting [13], 0.3%; under setting [14], 0.3%; under setting [15], 0.3%. For the same compound, the activity at 0.1 µM runs as follows: under setting [7], 81.7%; under setting [8], 84.8%; under setting [9], 87.9%.
On to `CCOC(=O)c1ccc(NC(=O)Nc2ccc(O)cc2)cc1` [Compound F], for which the “sebum suppressive activity in the presence of a retinoid / combined with retinol” value is recorded as “improved sebum suppressive activity”. Moreover, the “% of Control” value under setting [1] is reported as 67.3%. Under setting [2], the “% of Control” value is 65.8%. The “% of Control” value under setting [3] is reported as 84.7%. In addition, the “% of Control” value under setting [4] worked out at 66.2%. Moreover, the “% of Control” value under setting [5] was determined as 53.7%. For the same compound, under setting [6], the “% of Control” value came to 82.7%.
With `O=S1(=O)OC(c2ccc(O)cc2)(c2ccc(O)cc2)c2ccccc21` [Phenol Red, phenol red, reference compound], the “% of Control” value was 95.3% under setting [16]; 46.5% and 52.2% and 54.9% and 56.8% under setting [17]. In addition, the activity at 28 µM reads like this: under setting [16], 75.5%; (Experiment B, 28 μM Phenol Red (positive control)) 86.4%. Besides, the activity at 280 µM is, setting by setting: (Experiment A, 280 μM Phenol Red (positive control)) 15.9%; under setting [17], 52.5%; (Table 7, 280 μM Phenol Red (positive control)) 13.2%.
In the case of `O=C(Nc1ccc(O)cc1)Nc1cccc(C(F)(F)F)c1` [Compound E], the “sebum suppressive activity in the presence of a retinoid / combined with retinol” value is recorded as “improved sebum suppressive activity”. Further, the activity at 1 µM under setting [1] was determined as 75.1%. The activity at 1 µM under setting [2] was determined as 46.4%. The activity at 1 µM under setting [3] is 66.4%. Also, the activity at 10 µM under setting [4] was determined as 32%. Moreover, the activity at 10 µM under setting [5] worked out at 2.3%. The activity at 10 µM under setting [6] was 50%. For the same compound, the activity at 1 µM under setting [10] is 67.2%. The activity at 1 µM under setting [11] is 54.2%. Moreover, under setting [12], the activity at 1 µM turned out to be 97.3%. Moreover, the activity at 10 µM under setting [13] is 49.8%. Further, under setting [14], the activity at 10 µM amounted to 2.1%. Also, the activity at 10 µM under setting [15] was 66.4%.
`CC1=C(/C=C/C(C)=C/C=C/C(C)=C/CO)C(C)(C)CCC1` [Retinol, retinol, reference compound]: the activity at 10 µM is, setting by setting: (Experiment A, 10 μM Retinol alone) 105%; (Experiment B, 10 μM Retinol alone) 106%; (Table 7, 10 μM Retinol alone) 106%. For the same compound, the activity at 1 µM turned out to be 98.1% (Experiment B, 1 μM Retinol alone) and 98.1% (Table 7, 1 μM Retinol alone).
As for `Cc1cccc(N2CCN(C(=O)CC3C=CC(CC(=O)N4CCN(c5cccc(C)c5)C(C)C4)C3)CC2C)c1` (centres unmarked) [Compound G], the “sebum suppressive activity in the presence of a retinoid / combined with retinol” value is given as “improved sebum suppressive activity”. For the same compound, the activity at 10 µM (96 Well Plate, 10 μM test compound + 1 μM Retinol) is 70.3%. For the same compound, the activity at 10 µM (96 Well Plate, 10 μM test compound alone) turned out to be 102%. For the same compound, the activity at 50 µM (96 Well Plate, 50 μM test compound + 1 μM Retinol) amounted to 3.3%. Besides, the activity at 50 µM (96 Well Plate, 50 μM test compound alone) turned out to be 25.5%.
In the case of `Cc1cccc(O)c1NC(=O)OC1CC(C)CCC1C(C)C` (centres unmarked) [Compound C], the activity at 1 µM was 66.5% under setting [2]; 70.1% under setting [3]; 78.2% under setting [10]; 68.8% under setting [11]; 75.3% under setting [12]. The activity at 10 µM is, setting by setting: under setting [5], 0.2%; under setting [6], 0.2%; under setting [13], 0.4%; under setting [14], 0.4%; under setting [15], 0.4%. Besides, the activity at 0.1 µM is 94% under setting [7], 88.6% under setting [8] and 97.9% under setting [9].

Source of the values: patent US20020028224A1, “Cosmetic compositions containing substituted amide derivatives” (Unilever Home & Personal Care USA, Division of Conopco, Inc., priority 2000, published 2002).
